This note sets out measurements from patent EP2842965A1, “Neuromedin U analogs comprising serum albumin binding amino acid residue” (Gubra ApS, priority 2013, dated 2015).

pEC50: −log10 of the molar value. Starred links: 1 amine or outer side, 2 acyl side, 3 side chain; linkers in the order of their positions; H or OH if unused. Residues, ends and D or L forms follow the SMILES beside them. Groups on a side chain read outwards from the residue. *: point of attachment. γGlu = O=C(O)[C@H](CCC(=O)[*:2])N[*:1]; Palmitoyl = CCCCCCCCCCCCCCCC(=O)*

This assay addresses T1, Neuromedin U receptor 2 (NMUR2) (Homo sapiens, UniProt Q9GZQ4).
T1 construct: expressed in transfected cells; host or cells: HEK293 cells, transient calcium phosphate transfection; the empty-vector control is pcDNA3
Nature of the assay: Functional assay (IP3 SPA-ysi assay) in HEK293 cells transfected with NMUR2. In kind it is cell-based. The note with it: HEK293 cells transiently transfected with NMUR2; head says cAMP, method describes IP3 SPA readout. How it is done: All compounds were dissolved in dimethyl sulfoxide (DMSO), and then water was added (total DMSO conc. was 80%). The stock concentration was 1 mM for all the compounds. Stocks were alliquoted and frozen -20°C.
The day before each assay a new standard row was prepared by dilution of the stock solution in assay buffer (1 mM acetic acid + 0.1% bovine serum albumin (BSA)). The following concentrations were prepared (depending on the ligand potency): 10^-5, 10^-6, 10^-7, 10^-7.5, 10^-8, 10^-8.5, 10^-9, 10^-10, 10^-11, 10^-12 M.
Cell cultures: The HEK293 cells are grown in (DMEM31966 glutamax supplemented with 10% FBS (fetal bovine serum) and 1% penicillin G and streptomycin) and incubated at 37°C with 10% CO2 in a humidified atmosphere. The cells were split as follows. HEK293 cells approximately 80% confluent was used. The cells were removed from the bottom of the bottle by removing the media (DMEM31966 glutamax supplemented with 10% FBS and 1% penicillin G and streptomycin), rinsed with 5 mL phosphate buffered saline (PBS) and shaken gently. The PBS was removed and cells were released from the bottom with trypsin (1-2 mL) and incubated for 2-3 min. The flasks were then turned gently to ensure complete release of the cells from the bottom. Then media was added to the cells, (5-8 mL was used to rinse the cells of the bottom, this process was repeated approximately 4 times using the same media). Cell suspension was then transferred to a new bottle (approximately 4 × 10^6 cells per 175 cm^2 flask) and 20 mL media was added. Cells were incubated at 37°C with 10% CO2 in a humidified atmosphere.
Transfection of cells: HEK293 cells were seeded out at the density of 8 × 10^6 cells per 175 cm^2 flask 1 day prior to the transfection. Before transfection of cells, the culture medium was aspirated and half of the standard volume was added. 40 µg receptor-containing plasmid (Neuromedin U receptor 1 (NMUR1) or Neuromedin U receptor 2 (NMUR2)) or "empty" vector plasmid (pcDNA3), as a negative control, was mixed with 60 µL […] CaCl2 and Tris-EDTA (TE) buffer (10 mM tris(hydroxymethyl)aminomethane hydrochloride (Tris HCl), 1 mM ethylenedinitrilotetraacetic acid (EDTA), pH 7.5) to a total volume of 480 µL. The mixture was added drop-wise to another tube containing 480 µL 2 × HEPES buffered saline (HBS buffer) (280 mM NaCl, 50 mM 4-(2-Hydroxyethyl)piperazine-1-ethanesulfonic acid (HEPES), 1.5 mM NaHPO4, pH 7.2) and left for 45 min at room temperature for DNA precipitation. Afterwards, the precipitate was added carefully to the cells and cells were incubated for 5 hours at normal culture conditions. The transfection was stopped by change of the DNA-containing medium with 20 mL of fresh cell culture medium.
Seeding of the cells in 96 well plates: One day after transfection, cells were harvested using trypsin as described above. The cells were seeded in a poly-D-lysine coated clear 96 well plate. 100 µL cell suspension 350.000 cells/mL was added. 3H-myo-inositol (5µL/mL) was added to each well yielding a concentration of 35000 cells/well. The cells were incubated overnight before assay procedure the following day.
IP3 SPA-ysi assay: The media was removed and the plates were washed with 200 µL of Hank's balanced salt solution (HBSS) (Gibco, Life Technologies). 100 µL of HBSS/10 mM LiCl was added and the plates were incubated 15 min at 37°C. 5 µL ligand was added to each well and the plate was incubated at 37°C for 70-90 min (incubation time was approximately 1 h and 16 min for all plates). The plates were placed on ice and 50 µL formic acid (10 mM) was added to each well. The plates was left on ice for at least 30 min. 20 µL was then transferred to a white 96 well plate and 80 µL yttrium silicate (YSi) SPA-beads RPNQ0010 (Perkin Elmer) solution (0.0125 g/mL) is added to each well. The plates were sealed and shaken on high speed for 30 min, then centrifuged for 5 min at 1500 rpm and counted with 8 hours delay in the top counter. […]

T1 sequence (Q9GZQ4 whole entry): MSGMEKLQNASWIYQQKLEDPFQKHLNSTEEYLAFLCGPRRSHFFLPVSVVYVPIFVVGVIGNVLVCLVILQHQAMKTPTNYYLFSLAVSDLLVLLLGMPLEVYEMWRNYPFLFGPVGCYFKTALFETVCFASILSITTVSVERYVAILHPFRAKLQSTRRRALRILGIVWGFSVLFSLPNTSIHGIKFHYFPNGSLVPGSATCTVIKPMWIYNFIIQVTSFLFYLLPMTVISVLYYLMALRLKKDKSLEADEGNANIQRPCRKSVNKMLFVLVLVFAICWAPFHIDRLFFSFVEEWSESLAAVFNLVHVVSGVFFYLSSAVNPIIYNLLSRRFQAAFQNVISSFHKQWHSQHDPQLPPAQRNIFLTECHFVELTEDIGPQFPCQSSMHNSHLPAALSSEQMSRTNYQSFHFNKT

`CCCCCCCCCCCCCCCC(=O)N[C@@H](CCC(=O)NCCCC[C@H](NC(=O)[C@H](CCC(N)=O)NC(=O)[C@H](CO)NC(=O)[C@H](C)NC(=O)[C@H](Cc1ccccc1)NC(=O)[C@@H]1CCCN1C(=O)[C@H](CO)NC(=O)[C@H](CCC(N)=O)NC(=O)[C@H](Cc1ccccc1)NC(=O)[C@H](CCC(=O)O)NC(=O)[C@H](CCC(=O)O)NC(=O)[C@H](CC(=O)O)NC(=O)[C@@H](NC(=O)[C@H](CCCNC(=N)N)NC(=O)[C@@H](N)Cc1ccccc1)C(C)C)C(=O)N[C@@H](CCCNC(=N)N)C(=O)NCC(=O)N[C@@H](Cc1ccc(O)cc1)C(=O)N[C@@H](Cc1ccccc1)C(=O)N[C@@H](CC(C)C)C(=O)N[C@@H](Cc1ccccc1)C(=O)N[C@@H](CCCNC(=N)N)C(=O)N1CCC[C@H]1C(=O)N[C@@H](CCCNC(=N)N)C(=O)N[C@@H](CC(N)=O)C(N)=O)C(=O)O` [SEQ ID NO 5] (H-FRVDEEFQSPFASQK([γGlu-Palmitoyl])RGYFLFRPRN-NH2): the pEC50 (in general, −log10 of the EC50, conventionally taken in molar units) was 6.79.

Consider `CCCCCCCCCCCCCCCC(=O)N[C@@H](CCC(=O)NCCCC[C@H](NC(=O)[C@H](C)NC(=O)[C@H](Cc1ccccc1)NC(=O)[C@@H]1CCCN1C(=O)[C@H](CO)NC(=O)[C@H](CCC(N)=O)NC(=O)[C@H](Cc1ccccc1)NC(=O)[C@H](CCC(=O)O)NC(=O)[C@H](CCC(=O)O)NC(=O)[C@H](CC(=O)O)NC(=O)[C@@H](NC(=O)[C@H](CCCNC(=N)N)NC(=O)[C@@H](N)Cc1ccccc1)C(C)C)C(=O)N[C@@H](CCC(N)=O)C(=O)N[C@@H](CO)C(=O)N[C@@H](CCCNC(=N)N)C(=O)NCC(=O)N[C@@H](Cc1ccc(O)cc1)C(=O)N[C@@H](Cc1ccccc1)C(=O)N[C@@H](CC(C)C)C(=O)N[C@@H](Cc1ccccc1)C(=O)N[C@@H](CCCNC(=N)N)C(=O)N1CCC[C@H]1C(=O)N[C@@H](CCCNC(=N)N)C(=O)N[C@@H](CC(N)=O)C(N)=O)C(=O)O` [SEQ ID NO 8] (H-FRVDEEFQSPFAK([γGlu-Palmitoyl])QSRGYFLFRPRN-NH2), for which the pEC50 was 6.81. This pEC50 and that of the molecule before are within 0.2 log units of each other.

Molecule `CCCCCCCCCCCCCCCC(=O)N[C@@H](CCC(=O)NCCCC[C@H](NC(=O)[C@H](CCC(=O)O)NC(=O)[C@H](CC(=O)O)NC(=O)[C@@H](NC(=O)[C@H](CCCNC(=N)N)NC(=O)[C@@H](N)Cc1ccccc1)C(C)C)C(=O)N[C@@H](Cc1ccccc1)C(=O)N[C@@H](CCC(N)=O)C(=O)N[C@@H](CO)C(=O)N1CCC[C@H]1C(=O)N[C@@H](Cc1ccccc1)C(=O)N[C@@H](C)C(=O)N[C@@H](CO)C(=O)N[C@@H](CCC(N)=O)C(=O)N[C@@H](CO)C(=O)N[C@@H](CCCNC(=N)N)C(=O)NCC(=O)N[C@@H](Cc1ccc(O)cc1)C(=O)N[C@@H](Cc1ccccc1)C(=O)N[C@@H](CC(C)C)C(=O)N[C@@H](Cc1ccccc1)C(=O)N[C@@H](CCCNC(=N)N)C(=O)N1CCC[C@H]1C(=O)N[C@@H](CCCNC(=N)N)C(=O)N[C@@H](CC(N)=O)C(N)=O)C(=O)O` [SEQ ID NO 14] (H-FRVDEK([γGlu-Palmitoyl])FQSPFASQSRGYFLFRPRN-NH2) showed a pEC50 of 7.28.

With `CCCCCCCCCCCCCCCC(=O)N[C@@H](CCC(=O)NCCCC[C@H](NC(=O)[C@@H](NC(=O)[C@H](CCCNC(=N)N)NC(=O)[C@@H](N)Cc1ccccc1)C(C)C)C(=O)N[C@@H](CCC(=O)O)C(=O)N[C@@H](CCC(=O)O)C(=O)N[C@@H](Cc1ccccc1)C(=O)N[C@@H](CCC(N)=O)C(=O)N[C@@H](CO)C(=O)N1CCC[C@H]1C(=O)N[C@@H](Cc1ccccc1)C(=O)N[C@@H](C)C(=O)N[C@@H](CO)C(=O)N[C@@H](CCC(N)=O)C(=O)N[C@@H](CO)C(=O)N[C@@H](CCCNC(=N)N)C(=O)NCC(=O)N[C@@H](Cc1ccc(O)cc1)C(=O)N[C@@H](Cc1ccccc1)C(=O)N[C@@H](CC(C)C)C(=O)N[C@@H](Cc1ccccc1)C(=O)N[C@@H](CCCNC(=N)N)C(=O)N1CCC[C@H]1C(=O)N[C@@H](CCCNC(=N)N)C(=O)N[C@@H](CC(N)=O)C(N)=O)C(=O)O` [SEQ ID NO 17] (H-FRVK([γGlu-Palmitoyl])EEFQSPFASQSRGYFLFRPRN-NH2), the negative-log EC50 (pEC50) was 7.30.
